Patent publication US7563758B2, “Enzymatic production of peracids using Lactobacilli having perhydrolysis activity” (E. I. du Pont de Nemours and Company, priority 2005, dated 2009)

Experiments:
Assay in all cases: Minimum biocidal concentration (MBC) of peracetic acid, XTT microtiter assay
Type in all cases: cell-based
Details in all cases: 5-log kill; exposure at room temperature (e.g., 10 minutes)
[1] = system: Pseudomonas aeruginosa ATCC 15442
From the text: (§1) The method described by J. Gabrielson, et al. (J. Microbiol. Methods 50: 63-73 (2002)) can be employed for determination of the Minimum Biocidal Concentration (MBC) of peracids, or of hydrogen peroxide and enzyme substrates. The assay method is based on XTT reduction inhibition, where XTT ((2,3-bis[2-methoxy-4-nitro-5-sulfophenyl]-5-[(phenylamino)carbonyl]-2H-tetrazolium, inner salt, monosodium salt) is a redox dye that indicates microbial respiratory activity by a change in optical density (OD) measured at 490 nm or 450 nm. However, there are a variety of other methods available for testing the activity of disinfectants and antiseptics including, but not limited to viable plate counts, direct microscopic counts, dry weight, turbidity measurements, absorbance, and bioluminescence (see, for example Brock, Semour S., Disinfection, Sterilization, and Preservation, 5th edition, Lippincott Williams & Wilkins, Philadelphia, Pa., USA; 2001).
(§2) The minimum biocidal concentration (MBC) of peracid required to produce a 5-log kill of Staphylococcus aureus ATCC 6538, Salmonella cholerasuis ATCC 10708 and Pseudomonas aeruginosa ATCC 15442 was determined according to the following procedure. Cultures were grown in 5 mL LB broth (Media Tech, Inc.) for 17-24 hours at 35° C. with shaking and subsequently plated on Trypticase Soy Agar (VWR). At least 3 consecutive daily transfers were made. Plates were incubated for 20-24 hours at 35° C.±2° C. Each culture was removed from the agar surface by flooding with 5-7 mL of phosphate buffer, pH 7.2. (e.g., Butterflies or equivalent) and transferred into a sterile flask. The OD600 of the culture suspension was measured and the cell suspension was diluted in phosphate buffer to a final cell density between 1-2 E+05 and 1-2 E+06 CFU/mL, where the final cell concentration was adjusted to produce the concentration needed for the number of logs kill required. The peracetic acid solution to be tested was diluted by doubling dilutions from 600 ppm to 0.5 ppm in sterile water. Test inoculum (100 μL) was added each well of a 96-well microtiter plate, columns 1-11; column 12 was employed for a blank check using sterile dd water in place of inoculum. Decreasing concentrations of peracid solution (100 μL) was added across columns 1-10, and the plates held at room temperature for the required exposure time (e.g., 10 minutes). A Neutralization/detection plate was prepared with Letheen Broth (Difco #268110) and XTT (4 mM stock in water, 2,3-bis-[2-methoxy-4-nitro-5-sulfophenyl]-2H-tetrazolium-5-carboxanilide inner salt); 190 μL was added to each well of a fresh 96 well microtiter plate. From each well of the exposure plate, a 10 μL aliquot was transferred to the neutralization/detection plate. An OD450 reading was measured, and the plate incubated at 35° C.±2° C. for 24 hours. A second OD450 was measured, where orange color was indicative of cell growth. A suspension to test organism(s) was prepared equal to 1-2 E+04 CFU/mL. Add A 10 μL aliquot of this suspension was added to each negative well except column 12, and the plates incubated at 35° C.±2° C. for 24 hours. […] The MBC of peracetic acid generated enzymatically from triacetin by Lactobacillus plantarum ATCC BAA793 (Table 11) indicated equivalency with commercial peracetic acid.

[2] = system: Salmonella cholerasuis ATCC 10708
From the text: as §1, §2

[3] = system: Staphylococcus aureus ATCC 6538
From the text: as §1, §2

SMILES | MBC in ppm PAA, Pseudomonas aeruginosa ATCC 15442 [1] | MBC in ppm PAA, Salmonella cholerasuis ATCC 10708 [2] [ppm PAA] | MBC in ppm PAA, Staphylococcus aureus ATCC 6538 [3]
CC(=O)OO [L. plantarum ATCC BAA793, peracetic acid] | 1.4 ppm PAA | 1.4 | 1.4 ppm PAA
CC(=O)OO [Sigma Lot # 07726EC, peracetic acid, reference compound] | 2.4-14 ppm PAA | – | 1.8-2.4 ppm PAA
